In patent US20260216170A1, “TETRAHYDROISOQUINOLINE HETEROBIFUNCTIONAL BCL-XL DEGRADERS” (Treeline Biosciences, Inc., priority 2023, published 2026):

Target: T1, Human BCL-XL protein (N-terminal HiBiT tagged BCL-XL expressed in HT1080 cells) (Homo sapiens, UniProt Q07817)
T1 construct: expressed in transfected cells; host or cells: HT-1080 (ATCC CCL-121), stably transduced with lentivirus pLV-UBC-N-HiBiT-BCL-XL-PGK-puro and selected with puromycin
Assay: HiBiT Based Degradation Assay
Assay type: cell-based
Details: 24 hours incubation; for DC50: BCL-XL degradation, HT1080 cells expressing N-HiBiT-BCL-XL, normalized with DMSO control, geometric mean for multiple data points, read-out: EC50 (24 h); for Ymin (24 h): bottom of BCL-XL degradation curve (remaining HiBiT-BCL-XL signal vs DMSO control), HT1080 cells
Text: HiBiT Based Degradation Assay
Human BCL-XL protein coding open reading frame fused with N-terminal HiBiT coding sequence (N-HiBiT-BCL-XL) was synthesized from Integrated DNA Technologies (IDT). Next, N-HiBiT-BCL-XL sequence was cloned into pLV-UBC-PGK-Puro, a lentivirus plasmid purchased from Vectorbuilder, to generate pLV-UBC-N-HiBiT-BCL-XL-PGK-puro. Lentiviral particles were generated from Lenti-X™ 293T cells (Clontech) by co-transfection of pLV-UBC-N-HiBiT-BCL-XL-PGK-puro plasmids and lentiviral packaging plasmid mix (Cellecta). HT-1080 [HT1080](ATCC CCL-121™) cells were infected with the lentivirus, and HT1080 cells stably integrated with the lentiviral vector were established by incubation with 1 μg/mL puromycin (Thermofisher). HT1080 cells expressing N-terminal HiBiT tagged BCL-XL were dispensed into 384-well plates pre-spotted with compounds at varying concentrations. Three thousand cells were seeded into each well in 40 μL of RPMI 1640 media. After 24 hours of incubation at 37° C. with 5% CO2, 30 μL of the NANO-GLO® HiBiT Lytic Detection System working solution (Promega) was added to each well and incubated at room temperature for 30 min. After incubation, luminescence was read on a PHERAstar FSX Plate Reader (BMG). BCL-XL degradation at each indicated concentration was normalized with DMSO control. The BCL-XL degradation curves were plotted using a four-parameter logistic model. For compounds displaying hook effects, curve fitting was performed using bottom point of hook curves (i.e., the point of Ymin) as bottom plateau to calculate EC50. For compounds with multiple data points, the geometric mean is presented.

T1 sequence (Q07817 whole entry): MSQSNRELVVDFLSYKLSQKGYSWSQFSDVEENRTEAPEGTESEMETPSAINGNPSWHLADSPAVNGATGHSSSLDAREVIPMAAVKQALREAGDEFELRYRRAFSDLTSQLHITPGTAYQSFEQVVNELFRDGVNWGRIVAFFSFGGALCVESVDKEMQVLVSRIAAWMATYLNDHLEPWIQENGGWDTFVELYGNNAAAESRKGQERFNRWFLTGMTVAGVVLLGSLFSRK

Row | Compound | DC50 [nM] | Ymin (24 h)
1 | Cc1cc(OC[C@@H]2C[C@@H]2C2CCN(CC(=O)Nc3ccc4c(C5CCC(=O)NC5=O)nn(C)c4c3)CC2)ccc1-c1ccc(N2CCc3cccc(C(=O)Nc4nc5ccccc5s4)c3C2)nc1C(=O)O (single isomer, unassigned) [Compound 1003d] | < 10 | A (Ymin < 30%)
2 | Cc1c(OC[C@H]2C[C@@H]2CC2CCN(CC(=O)Nc3ccc4c(C5CCC(=O)NC5=O)nn(C)c4c3)CC2)cccc1-c1ccc(N2CCc3cccc(C(=O)Nc4nc5ccccc5s4)c3C2)nc1C(=O)O (single isomer, unassigned) [Compound 1004a] | 10 to 100 | B (30% ≤ Ymin < 50%)
3 | Cc1c(OC[C@@H]2C[C@H]2CC2CCN(CC(=O)Nc3ccc4c(C5CCC(=O)NC5=O)nn(C)c4c3)CC2)cccc1-c1ccc(N2CCc3cccc(C(=O)Nc4nc5ccccc5s4)c3C2)nc1C(=O)O (single isomer, unassigned) [Compound 1004b] | 10 to 100 | B (30% ≤ Ymin < 50%)
4 | Cc1c(OC[C@@H]2C[C@@H]2CC2CCN(CC(=O)Nc3ccc4c(C5CCC(=O)NC5=O)nn(C)c4c3)CC2)cccc1-c1ccc(N2CCc3cccc(C(=O)Nc4nc5ccccc5s4)c3C2)nc1C(=O)O (single isomer, unassigned) [Compound 1004c] | < 10 | B (30% ≤ Ymin < 50%)
5 | Cc1c(OC[C@H]2C[C@H]2CC2CCN(CC(=O)Nc3ccc4c(C5CCC(=O)NC5=O)nn(C)c4c3)CC2)cccc1-c1ccc(N2CCc3cccc(C(=O)Nc4nc5ccccc5s4)c3C2)nc1C(=O)O (single isomer, unassigned) [Compound 1004d] | 10 to 100 | B (30% ≤ Ymin < 50%)
6 | Cc1c(OCCCC2CCN(CC(=O)Nc3ccc4c(C5CCC(=O)NC5=O)nn(C)c4n3)CC2)cccc1-c1ccc(N2CCc3cccc(C(=O)Nc4nc5ccccc5s4)c3C2)nc1C(=O)O (stereo not drawn) [Compound 101] | 10 to 100 | C (50% ≤ Ymin < 70%)
7 | COc1cc2c(C3CCC(=O)NC3=O)nn(C)c2cc1NC(=O)CN1CCC(CCCOc2ccc(-c3ccc(N4CCc5cccc(C(=O)Nc6nc7ccccc7s6)c5C4)nc3C(=O)O)c(C)c2)CC1 (stereo not drawn) [Compound 103, 6-[8-(1,3-benzothiazol-2-ylcarbamoyl)-3,4-dihydro-1H-isoquinolin-2-yl]-3-[4-[3-[1-[2-[[3-(2,6-dioxo-3-piperidyl)-5-methoxy-1-methyl-indazol-6-yl]amino]-2-oxo-ethyl]-4-piperidyl]propoxy]-2-methyl-phenyl]pyridine-2-carboxylic acid] | 100 to 1000 | B (30% ≤ Ymin < 50%)
8 | COc1c(NC(=O)CN2CCC(CCCOc3cccc(-c4ccc(N5CCc6cccc(C(=O)Nc7nc8ccccc8s7)c6C5)nc4C(=O)O)c3C)CC2)ccc2c(C3CCC(=O)NC3=O)nn(C)c12 (stereo not drawn) [Compound 104, 6-[8-(1,3-benzothiazol-2-ylcarbamoyl)-3,4-dihydro-1H-isoquinolin-2-yl]-3-[3-[3-[1-[2-[[3-(2,6-dioxo-3-piperidyl)-7-methoxy-1-methyl-indazol-6-yl]amino]-2-oxo-ethyl]-4-piperidyl]propoxy]-2-methyl-phenyl]pyridine-2-carboxylic acid] | 10 to 100 | B (30% ≤ Ymin < 50%)
9 | COc1c(NC(=O)CN2CCC(CCCOc3ccc(-c4ccc(N5CCc6cccc(C(=O)Nc7nc8ccccc8s7)c6C5)nc4C(=O)O)c(C)c3)CC2)ccc2c(C3CCC(=O)NC3=O)nn(C)c12 (stereo not drawn) [Compound 105, 6-[8-(1,3-benzothiazol-2-ylcarbamoyl)-3,4-dihydro-1H-isoquinolin-2-yl]-3-[4-[3-[1-[2-[[3-(2,6-dioxo-3-piperidyl)-7-methoxy-1-methyl-indazol-6-yl]amino]-2-oxo-ethyl]-4-piperidyl]propoxy]-2-methyl-phenyl]pyridine-2-carboxylic acid] | 10 to 100 | A (Ymin < 30%)
10 | Cc1c(OCCCC2CCN(CC(=O)Nc3ccc4c(C5CCC(=O)NC5=O)nn(C)c4c3)CC2)cccc1-c1ccc(N2CCc3ccnc(C(=O)Nc4nc5ccccc5s4)c3C2)nc1C(=O)O (stereo not drawn) [Compound 106, 6-(8-(benzo[d]thiazol-2-ylcarbamoyl)-3,4-dihydro-2,7-naphthyridin-2(1H)-yl)-3-(3-(3-(1-(2-((3-(2,6-dioxopiperidin-3-yl)-1-methyl-1H-indazol-6-yl)amino)-2-oxoethyl)piperidin-4-yl)propoxy)-2-methylphenyl)picolinic acid] | 10 to 100 | B (30% ≤ Ymin < 50%)
11 | Cc1cc(OCCCC2(O)CCN(CC(=O)Nc3ccc4c(C5CCC(=O)NC5=O)nn(C)c4c3)CC2)ccc1-c1ccc(N2CCc3cccc(C(=O)Nc4nc5ccccc5s4)c3C2)nc1C(=O)O (stereo not drawn) [Compound 107, 6-(8-(benzo[d]thiazol-2-ylcarbamoyl)-3,4-dihydroisoquinolin-2(1H)-yl)-3-(4-(3-(1-(2-((3-(2,6-dioxopiperidin-3-yl)-1-methyl-1H-indazol-6-yl)amino)-2-oxoethyl)-4-hydroxypiperidin-4-yl)propoxy)-2-methylphenyl)picolinic acid] | < 10 | A (Ymin < 30%)
12 | Cc1c(OCCCC2(O)CCN(CC(=O)Nc3ccc4c(C5CCC(=O)NC5=O)nn(C)c4c3)CC2)cccc1-c1ccc(N2CCc3cccc(C(=O)Nc4nc5ccccc5s4)c3C2)nc1C(=O)O (stereo not drawn) [Compound 108, 6-(8-(benzo[d]thiazol-2-ylcarbamoyl)-3,4-dihydroisoquinolin-2(1H)-yl)-3-(3-(3-(1-(2-((3-(2,6-dioxopiperidin-3-yl)-1-methyl-1H-indazol-6-yl)amino)-2-oxoethyl)-4-hydroxypiperidin-4-yl)propoxy)-2-methylphenyl)picolinic acid] | 10 to 100 | B (30% ≤ Ymin < 50%)
13 | Cc1cc(OCCCC2CCN(CC(=O)Nc3cc4c(cc3F)c(C3CCC(=O)NC3=O)nn4C)CC2)ccc1-c1ccc(N2CCc3cccc(C(=O)Nc4nc5ccccc5s4)c3C2)nc1C(=O)O (stereo not drawn) [Compound 109] | 10 to 100 | C (50% ≤ Ymin < 70%)
14 | Cc1cc(OC2CC3(CCN(CC(=O)Nc4ccc5c(C6CCC(=O)NC6=O)nn(C)c5c4)CC3)C2)ccc1-c1ccc(N2CCc3cccc(C(=O)Nc4nc5ccccc5s4)c3C2)nc1C(=O)O (stereo not drawn) [Compound 112, 6-[8-(1,3-benzothiazol-2-ylcarbamoyl)-3,4-dihydro-1H-isoquinolin-2-yl]-3-[4-[[7-[2-[[3-(2,6-dioxo-3-piperidyl)-1-methyl-indazol-6-yl]amino]-2-oxo-ethyl]-7-azaspiro[3.5]nonan-2-yl]oxy]-2-methyl-phenyl]pyridine-2-carboxylic acid] | < 10 | A (Ymin < 30%)
15 | Cc1c(OC2CC3(CCN(CC(=O)Nc4ccc5c(C6CCC(=O)NC6=O)nn(C)c5c4)CC3)C2)cccc1-c1ccc(N2CCc3cccc(C(=O)Nc4nc5ccccc5s4)c3C2)nc1C(=O)O (stereo not drawn) [Compound 113, 6-[8-(1,3-benzothiazol-2-ylcarbamoyl)-3,4-dihydro-1H-isoquinolin-2-yl]-3-[3-[[7-[2-[[3-(2,6-dioxo-3-piperidyl)-1-methyl-indazol-6-yl]amino]-2-oxo-ethyl]-7-azaspiro[3.5]nonan-2-yl]oxy]-2-methyl-phenyl]pyridine-2-carboxylic acid] | < 10 | B (30% ≤ Ymin < 50%)
